# According to patent publication US20210290644A1, “COMPOUNDS AND METHODS FOR TREATING FUNGAL INFECTIONS” (Amplyx Pharmaceuticals, Inc., priority 2018, published 2021):
# “Also recorded” adds a separate entry of the source. Like-named read-outs stand apart in the source and are kept apart here.
# Experiments:
# [1] = Compound 1 pH solubility at room temperature; assay type: physicochemical
# [2] = pH stability of Compound 1 in buffer solutions stored at 40° C.; assay type: physicochemical; conditions: buffer solutions pH 7-8, stored at 40° C., up to seven days
# Description: The pH stability in buffer solutions were also evaluated for pH levels 7, 8, and 9 when stored at 40° C.
# [3] = tested on: Candida (C. albicans, C. glabrata, or C. auris); assay: PK-PD studies in immunocompromised mice infected with Candida (fungal burden, CFUs in the kidney); assay type: in vivo; conditions: dose fractionations
# Description: In PK-PD studies, immunocompromised mice were infected with one of three spp. of Candida (C. albicans, C. glabrata, or C. auris) and groups of animals were dosed with Compound 1 at different dose fractionations. […] The stasis endpoint was defined as the quantity of Candida spp. in CFUs just prior to Compound 1 administration compared to CFUs at the endpoint of assessment (i.e., 24 hours for C. albicans; 96 hours for C. glabrata and C. auris).
# In pharmacokinetic/pharmacodynamic (PK-PD) studies, immunocompromised mice were infected with one of three spp. of Candida (C. albicans, C. glabrata, or C. auris) and groups of animals were dosed with Compound 1 at different dose fractionations.
# [4] = Binary excipient compatibility study of Compound 1; assay type: physicochemical; conditions: binary mixtures, after 3 weeks at either storage condition
# Description: For each excipient screened, there were […] (5° C., room temperature, 40° C./75% RH, 50° C.) that could be pulled at 3 weeks or 4 weeks as shown in Table 85. For contingency, one vial was stored at each condition per excipient. At each time point, an appropriate active sample control vial from each condition was reconstituted and analyzed in addition to the compatibility samples.
# [5] = Compound 1 Injection 20 mg/mL batch analysis and stability (appearance, HPLC assay, related substances, pH, particulate matter); assay type: physicochemical; conditions: 72-hour stability data at 20 mg/mL
# Description: The HPLC method used in the stability studies for Compound 1 Injections, 20 mg/mL is a specific and stability-indicating method used for the determination of assay, related substances, content uniformity, identification, and absence of Compound 1 in Compound 1 Injection at 20 mg/mL. The method is a gradient reverse phase HPLC system to measure assay, purity, and related substances. The assay (% w/w) is determined by comparing the peak response of the sample to that of a standard. The same HPLC method used for purity and related substances is used to measure related substances. Related substances to Compound 1 drug substance are reported as area percent. The area of an impurity is divided by the total area of all sample-related peaks. Related substances are reported by retention time relative to the parent peak (RRT).
# Compound 1 Injection, 20 mg/mL, was prepared as a non-buffered solution suitable for Phase 1 clinical studies containing Compound 1, sodium chloride, and pH adjustment using hydrochloric acid and/or sodium hydroxide to pH 7.5. […] Samples have been analyzed for appearance, assay, related substance, and pH. Compound 1 Injection, engineering batch #707 manufactured under GMP was placed on an ICH stability program at 5° C. and 25° C./60% RH. Samples have been analyzed for appearance, assay, related substance, particulate matter, and pH. […]
# [6] = Additional Phase 1 study of Compound 1: IV loading, IV maintenance, then oral through Day 42, safety; assay type: in vivo, human; conditions: 1000 mg IV 3-hour BID Day 1, 600 mg IV 3-hour QD Days 2-7, 800 mg orally QD Days 8-42
# [7] = in vivo
# Description: This was a Phase 1, first-in-human, randomized, double-blind, placebo-controlled single ascending dose (SAD) and multiple ascending dose (MAD) escalation study of 120 healthy male and female subjects. The objectives of the study were to evaluate the safety, tolerability, and pharmacokinetics of single and multiple doses of Compound 1 administered by intravenous (IV) infusion.
# (§1) In the single ascending dose (SAD) phase, Cohorts 1 to 6 and 11A to 11D received single doses. For Cohorts 11A to 11D, the infusion time varied from 0.5 to 3 hours to evaluate the relationship between C., and tolerability. In the multiple ascending dose (MAD) phase, Cohorts 7 to 10 received multiple doses over 14 days, and Cohort 12 examined the feasibility of a loading dose regimen.
# Blood samples for the determination of Compound 1 and Compound 1A plasma concentrations were collected before and at appropriate times during all single- and multiple-dose administrations of Compound 1. For SAD Cohorts 1 to 6, urine samples for the determination of Compound 1A were collected through 48 hrs after dosing.
# Eighty (80) subjects were enrolled into SAD Cohorts 1 to 6 and 11A to 11D. Within each cohort, six subjects were randomized to Compound 1 and two subjects to placebo. All 60 subjects randomized to Compound 1 completed dosing. Fifty-nine (59) subjects completed the study.
# Forty (40) subjects were enrolled into MAD Cohorts 7 to 10 and Loading Dose Cohort 12. Within each cohort, six subjects were randomized to Compound 1 and two subjects to placebo.
# The PK analysis population therefore consisted of 60 subjects in the SAD phase and 28 subjects in the MAD phase.
# [8] = Study #1 Phase 1: safety and tolerability (TEAEs) of IV Compound 1
# Description: This was a Phase 1, first-in-human, randomized, double-blind, placebo-controlled single ascending dose (SAD) and multiple ascending dose (MAD) escalation study of 120 healthy male and female subjects.
# as §1
# [9] = Study #2 Phase 1: pharmacokinetics after single IV and single/multiple oral doses of Compound 1, absolute oral bioavailability; conditions: Cohort 1A, Period A, 200 mg IV;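 further: phase 1 study design: one IV dose, then escalating single oral doses, fed versus fasted single oral dosing, and once-daily oral dosing over 14 days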
# Description: In the single ascending dose (SAD) phase, subjects in Cohort 1a received a single IV dose in Period A and then rising single oral doses in Periods B to D. Subjects in Cohort 1b received a single oral dose under fed and fasted conditions in Periods E and F. Subjects in Cohorts 2 and 3 received once-daily oral doses for 14 days, as did subjects in Cohort 4 as part of an in vivo screen for drug-drug interaction (DDI) potential.
# For SAD Cohorts 1a and 1b, urine samples for the determination of Compound 1A were collected through 48 hrs after dosing.
# Forty-six (46) subjects were enrolled into the study, 8 in Cohort 1a, 10 in Cohort 1b, and 8 each in Cohorts 2 and 3.
# [10] = 100 mg sd oral treatment period
# [11] = 300 mg sd oral treatment period
# [12] = 500 mg sd oral treatment period
# [13] = 1000 mg/0.5 hr IV single dose group
# [14] = 1000 mg/1 hr IV single dose group
# [15] = 1000 mg/2 hr IV single dose group
# [16] = 1000 mg/3 hr IV single dose group
# [17] = Cohort 12 loading dose regimen (1000 mg IV 2-hour twice on Day 1 + 600 mg IV 1-hr QD Days 2-7)
smiles,measurement,setting,value
Nc1c(-c2cc(Cc3ccc(COc4ccccn4)cc3)no2)ccc[n+]1COP(=O)([O-])O [Compound 1],solubility,"[1]; 50 mM phosphate buffer, pH 7.5, aqueous buffer, Study B, pH 7.5 (50 mM phosphate buffer)",141000 µg/mL
same,solubility,"[1]; pH 1, simulated gastric fluid, Study A, pH 1",3830 µg/mL
same,solubility,"[1]; pH 3, aqueous buffer, Study A, pH 3",111 µg/mL
same,solubility,"[1]; pH 4, aqueous buffer, Study A, pH 4",63 µg/mL
same,solubility,"[1]; pH 5, aqueous buffer, Study A, pH 5",125 µg/mL
same,solubility,"[1]; pH 6, aqueous buffer, Study A, pH 6",758 µg/mL
same,solubility,"[1]; pH 6.5, aqueous buffer, Study B, pH 6.5",4300 µg/mL
same,solubility,"[1]; pH 7, aqueous buffer, Study A, pH 7, saturation not achieved",> 17600 µg/mL
same,solubility,"[1]; pH 7, aqueous buffer, Study B, pH 7.0",53700 µg/mL
same,solubility,"[1]; pH 7.5, aqueous buffer, Study A, pH 7.5, saturation not achieved",> 28500 µg/mL
same,solubility,"[1]; pH 8.5, aqueous buffer, Study A, pH 8.5, saturation not achieved",> 80000 µg/mL
same,solubility,"[1]; phosphate buffer, pH 7, aqueous buffer, Study B, pH 7.0 (with phosphate buffer)",20900 µg/mL
same,change in potency,[2],< 3%
same,"PK-PD variable that best correlated with antifungal efficacy (fungal burden, CFUs in the kidney)",[3],AUC/MIC ratio
same,compatibility with excipients (total purity profile),[4],compatible with the tested excipients
same,degradation,[5],< 0.10%
same,safety and tolerability,[6],safe and well tolerated
same,exposures to the prodrug relative to those of the active Compound 1A,"[7]; both, human, iv",< 5%
same,time after start of infusion by which prodrug concentrations are <LOQ,"[7]; both, human, iv",at most 8 hrs
same,accumulation of prodrug following multiple dosing,[7],essentially no accumulation
same,number of TEAEs,[10],2 TEAEs
same,subjects reporting TEAEs,[10],33%
same,number of TEAEs,200 mg sd IV treatment period,3 TEAEs
same,subjects reporting TEAEs,200 mg sd IV treatment period,50%
same,number of TEAEs,[11],6 TEAEs
same,subjects reporting TEAEs,[11],50%
same,number of TEAEs,500 mg md oral group,24 TEAEs
same,subjects reporting TEAEs,500 mg md oral group,83%
same,number of TEAEs,[12],1 TEAE
same,subjects reporting TEAEs,[12],17%
same,safety and tolerability,1000 mg PO QD on Days 1 through 14,safe and well tolerated
same,number of TEAEs,1000 mg md oral group,119 TEAEs
same,subjects reporting TEAEs,1000 mg md oral group,100%
same,deaths or SAEs,Study #2,no deaths or SAEs reported
same,dose-limiting toxicities (DLTs),Study #2,No DLTs were observed
same,maximum tolerated dose (MTD),Study #2,not determined/reached
same,safety and tolerability,all doses in Study #2,safe and well tolerated
same,tolerability,multiple oral doses of 500 mg and 1000 mg once daily for 14 consecutive days,well tolerated by the majority of subjects
same,tolerability,single IV doses of 200 mg and single oral doses 100 mg to 500 mg,well tolerated
same,effect of dosing under fed conditions on tolerability,"single-dose crossover food effect cohort, TEAEs related to Gastrointestinal and Nervous System Disorders",improve tolerability
same,number of TEAEs,[8]; [13],21 TEAEs
same,subjects reporting TEAEs,[8]; [13],100%
same,number of TEAEs,[8]; [14],25 TEAEs
same,subjects reporting TEAEs,[8]; [14],100%
same,number of TEAEs,[8]; [15],22 TEAEs
same,subjects reporting TEAEs,[8]; [15],100%
same,number of TEAEs,[8]; [16],13 TEAEs
same,subjects reporting TEAEs,[8]; [16],83%
same,number of TEAEs,[8]; [17],38 TEAEs
same,subjects reporting TEAEs,[8]; [17],100%
same,maximum tolerated dose (MTD),[8]; Study #1 and Study #2,not determined/not reached
same,severe TEAEs or SAEs,[8]; Study #1 and Study #2,no severe or very severe TEAEs or SAEs reported
same,dose-limiting toxicities,[8]; Study #1 and Study #2 (two Phase 1 studies),no dose-limiting toxicities observed; also recorded: No DLTs were observed
same,tolerability,"[8]; all single and multiple IV and oral doses, Study #1 and Study #2",well tolerated
same,safety and tolerability,"[8]; faster infusions (single dose: 2, 1 and 0.5 hrs; multiple dose: 1 hr)",safe and well tolerated
same,safety and tolerability,"[8]; loading dose 1000 mg IV twice on Day 1 (2-hr infusion), maintenance 600 mg QD",safe and well tolerated
same,tolerability,[8]; multiple IV doses up to 600 mg once daily for 14 consecutive days,well tolerated by the majority of subjects
same,tolerability,"[8]; single IV doses up to 350 mg over 3 hours and 1000 mg over 0.5-, 1-, 2-, 3-hour infusions",well tolerated
same,time after IV infusion through which prodrug plasma concentrations were ≥LOQ,[9],≤ 4 h
